Here are results for 14 compounds from US20260325561A1, “4'-SUBSTITUTED NUCLEOSIDES AND NUCLEOTIDES AS ANTIVIRAL AGENTS” (THE SCRIPPS RESEARCH INSTITUTE, priority 2023, published 2026).

Data set [1] concerns RSV A2. Put plainly: microbe, parasite or virus in culture. The conditions noted are these: human respiratory syncytial virus, HEp-2, 72 h, read-out: RSV A2 / Hep2 EC50. It counts as cell-based.
Data set [2] has as its system HRV 14. Kind of data set: microbe, parasite or virus in culture. It counts as cell-based, Human Rhinovirus 14 strain 1059. As to conditions: Rhinovirus B, H1-HeLa, 48 h, read-out: HRV / H1 HeLa B 14 EC50.
Data set [3] concerns HRV 16. Put plainly: microbe, parasite or virus in culture. It counts as cell-based, Human Rhinovirus 16 strain 11757. The conditions noted are these: Rhinovirus A, H1-HeLa, 48 h, read-out: HRV / H1 HeLa A16 EC50.
Data set [4] is described as follows: in vitro. The conditions noted are these: human, h1 hela cells.
A short description of data set [5]: in vitro. The conditions noted are these: human, hela-ace2 cells.
Data set [6] can be described thus: in vitro. As to conditions: human, hepg2 cells.
Data set [7] deals with DENV-2. Put plainly: microbe, parasite or virus in culture. It counts as cell-based, DENV-2 16681. As to conditions: Dengue virus, DENV2, HepG2, 24 h, read-out: DENV-2 / HepG2 EC50.
In data set [8] the test system is SARS-CoV-2. Kind of data set: microbe, parasite or virus in culture. As to conditions: Severe acute respiratory syndrome coronavirus 2, HeLa-ACE2, 24 h, read-out: SARS-CoV-2 / HeLa-ACE2 EC50. It counts as cell-based, SARS-CoV-2 strain USA-WA1/2020.
Data set [9] can be described thus: in vitro. The conditions noted are these: human, hep2 cells.
Data set [10] relates to HCMV. Kind of data set: HCMV/HFF antiviral assay. It counts as cell-based. The conditions noted are these: Human betaherpesvirus 5, HFF.

For orientation: CC50 means the concentration giving 50% cytotoxicity. High values mean lower toxicity to the cells, low ones greater toxicity to the cells. Regarding `N#Cc1ncnc2c1ccn2[C@@H]1O[C@](F)(COC(=O)c2ccccc2)[C@@H](O)[C@H]1OC(=O)c1ccccc1` [Example 50, ((2S,3S,4R,5R)-4-(benzoyloxy)-5-(4-cyano-7H-pyrrolo[2,3-d]pyrimidin-7-yl)-2-fluoro-3-hydroxytetrahydrofuran-2-yl)methyl benzoate], the EC50 in data set [1] is over 10 µM; in data set [2] it was over 10 µM; in data set [3], over 10 µM; in [7] it was 0.1 to 1 µM; in [8] it was over 10 µM. The CC50 in [4] and in [9] was 10 to 99 µM throughout. The CC50 at 24 h in [5] was in the range of 10 to 99 µM. In data set [6], this compound came in with a CC50 at 72 h of 1 to 10 µM.

As to `C#C[C@]1(O)[C@H](n2ccc(N)nc2=O)O[C@](F)(CO)[C@H]1O` [Example 44, 4-amino-1-((2R,3R,4S,5S)-3-ethynyl-5-fluoro-3,4-dihydroxy-5-(hydroxymethyl)tetrahydrofuran-2-yl)pyrimidin-2(1H)-one], the EC50 in data set [1], in [2], in [3], in [7] and in data set [8] was over 10 µM each time. Besides, the CC50 in [4] and in data set [9] was 10 to 99 µM throughout. The compound also came in with a CC50 at 24 h in data set [5] of over 99 µM. This compound came in with a CC50 at 72 h in data set [6] of over 99 µM.

As to `CNc1nc(N)nc2c1ccn2[C@@H]1O[C@](F)(COC(=O)c2ccccc2)[C@@H](O)[C@H]1O` [Example 56, ((2S,3S,4R,5R)-5-(2-amino-4-(methylamino)-7H-pyrrolo[2,3-d]pyrimidin-7-yl)-2-fluoro-3,4-dihydroxytetrahydrofuran-2-yl)methyl benzoate], the EC50 in data set [1], in data set [2], in data set [3], in data set [7] and in data set [8] was over 10 µM in each case. The CC50 in data set [4] and in data set [9] was over 99 µM each time. The compound also displayed a CC50 at 24 h in [5] of over 99 µM. In data set [6], this compound returned a CC50 at 72 h of over 99 µM.

For `N#Cc1cn([C@@H]2O[C@](F)(CO)[C@@H](O)[C@H]2O)c2ncnc(N)c12` [Example 26, 4-amino-7-((2R,3R,4S,5S)-5-fluoro-3,4-dihydroxy-5-(hydroxymethyl)tetrahydrofuran-2-yl)-7H-pyrrolo[2,3-d]pyrimidine-5-carbonitrile], the EC50 was under 0.1 µM in data set [1]; over 10 µM in data set [2]; over 10 µM in data set [3]; under 0.1 µM in data set [7]; 0.1 to 1 µM in [8]. Besides, the CC50 in data set [4] is 1 to 10 µM; in data set [9], under 1 µM. The CC50 at 24 h in [5] is under 1 µM. Further, the 50% cytotoxic concentration (CC50) at 72 h in data set [6] is under 1 µM.

For `COc1ncnc2c1ccn2[C@@H]1O[C@](F)(CO)[C@@H](O)[C@H]1O` [Example 41, (2S,3S,4R,5R)-2-fluoro-2-(hydroxymethyl)-5-(4-methoxy-7H-pyrrolo[2,3-d]pyrimidin-7-yl)tetrahydrofuran-3,4-diol], the EC50 in [1], in data set [2], in data set [3], in data set [7] and in data set [8] was over 10 µM throughout. For the same compound, the CC50 in data set [4] and in data set [9] was 10 to 99 µM throughout. The CC50 at 24 h in data set [5] lay in the range of 10 to 99 µM. The CC50 at 72 h in data set [6] was in the range of 10 to 99 µM.

With `Nc1nc2c(ncn2[C@@H]2O[C@](F)(CO)[C@@H](O)C2(F)F)c(=O)[nH]1` [Example 71, 2-amino-9-((2R,4R,5S)-3,3,5-trifluoro-4-hydroxy-5-(hydroxymethyl)tetrahydrofuran-2-yl)-1,9-dihydro-6H-purin-6-one], the EC50 in data set [1], in data set [2], in data set [7], in data set [8] and in data set [10] was over 10 µM each time. For the same compound, the CC50 in data set [4] and in [9] was over 99 µM each time. This compound returned a CC50 at 24 h in data set [5] of over 99 µM. Further, the CC50 at 72 h in data set [6] is over 99 µM.

`OC[C@@]1(F)O[C@@H](n2ccc3cncnc32)[C@H](O)[C@@H]1O` [Example 23, (2S,3S,4R,5R)-2-fluoro-2-(hydroxymethyl)-5-(7H-pyrrolo[2,3-d]pyrimidin-7-yl)tetrahydrofuran-3,4-diol]: the EC50 fell in the range of 1 to 10 µM in [1]; 1 to 10 µM in [2]; 1 to 10 µM in [3]; 0.1 to 1 µM in data set [7]; 1 to 10 µM in data set [8]. Moreover, the half-maximal cytotoxic concentration (CC50) in [4] and in data set [9] was 10 to 99 µM in each case. Also, in data set [5], the CC50 at 24 h lay in the range of 1 to 10 µM. This compound had a CC50 at 72 h in [6] of 1 to 10 µM.

As for `NC(=O)c1cc([C@@H]2O[C@](F)(COC(=O)c3ccccc3)[C@@H](O)[C@H]2O)n2ncnc(N)c12` [Example 34, ((2S,3S,4R,5S)-5-(4-amino-5-carbamoylpyrrolo[2,1-f][1,2,4]triazin-7-yl)-2-fluoro-3,4-dihydroxytetrahydrofuran-2-yl)methyl benzoate], the EC50 in data set [1] was 0.1 to 1 µM; in data set [2] it was over 10 µM; in data set [3] it was over 10 µM; in data set [7], 1 to 10 µM; in data set [8], over 10 µM. The CC50 is 1 to 10 µM in data set [4] and under 1 µM in data set [9]. Also, the CC50 at 24 h in [5] was 1 to 10 µM. Besides, the cytotoxic concentration (CC50) at 72 h in data set [6] was under 1 µM.

Take `Nc1nc(Cl)nc2c1ncn2[C@@H]1O[C@](F)(CO)[C@@H](O)[C@H]1O` [Example 43, (2S,3S,4R,5R)-5-(6-amino-2-chloro-9H-purin-9-yl)-2-fluoro-2-(hydroxymethyl)tetrahydrofuran-3,4-diol]: the EC50 in [1], in [2], in data set [3], in data set [7] and in data set [8] was over 10 µM each time. The CC50 in data set [4] was 10 to 99 µM; in data set [9] it was over 99 µM. In data set [5], this compound registered a CC50 at 24 h of over 99 µM. In [6], this compound returned a CC50 at 72 h of 10 to 99 µM.

With `CC(=O)O[C@H]1[C@H](n2ncc(=O)[nH]c2=O)O[C@](F)(COC(=O)c2ccccc2)[C@H]1OC(C)=O` [Example 45, (2S,3S,4R,5R)-2-((benzoyloxy)methyl)-5-(3,5-dioxo-4,5-dihydro-1,2,4-triazin-2(3H)-yl)-2-fluorotetrahydrofuran-3,4-diyl diacetate], the EC50 in data set [1], in [2], in [3], in data set [7] and in data set [8] was over 10 µM in each case. Further, the CC50 in data set [4] and in data set [9] was over 99 µM each time. Also, the CC50 at 24 h in data set [5] is over 99 µM. The CC50 at 72 h in [6] is over 99 µM.

Turning to `C#Cc1nc(N)c2ncn([C@@H]3O[C@](F)(CO)[C@@H](O)[C@H]3O)c2n1` [Example 18, (2S,3S,4R,5R)-5-(6-amino-2-ethynyl-9H-purin-9-yl)-2-fluoro-2-(hydroxymethyl)tetrahydrofuran-3,4-diol], the EC50 in data set [1], in data set [2], in [3], in data set [7] and in data set [8] was over 10 µM each time. Also, the 50% cytotoxic concentration (CC50) in [4] and in data set [9] was over 99 µM throughout. The compound also came in with a cytotoxic concentration (CC50) at 24 h in data set [5] of over 99 µM. The CC50 at 72 h in [6] was over 99 µM.

As for `C[C@]1(O)[C@H](n2ccc3c(N)ncnc32)O[C@](F)(CO)[C@H]1O` [Example 10, (2S,3S,4R,5R)-5-(4-amino-7H-pyrrolo[2,3-d]pyrimidin-7-yl)-2-fluoro-2-(hydroxymethyl)-4-methyltetrahydrofuran-3,4-diol], the EC50 in data set [1], in data set [2], in data set [3], in data set [7] and in data set [8] was over 10 µM throughout. The CC50 in [4] and in [9] was over 99 µM in each case. The compound also yielded a CC50 at 24 h in data set [5] of over 99 µM. Also, the CC50 at 72 h in data set [6] is over 99 µM.

In the case of `Cc1nc(Cl)c2ccn([C@@H]3O[C@](F)(CO)[C@@H](O)[C@H]3O)c2n1` [Example 29, (2S,3S,4R,5R)-5-(4-chloro-2-methyl-7H-pyrrolo[2,3-d]pyrimidin-7-yl)-2-fluoro-2-(hydroxymethyl)tetrahydrofuran-3,4-diol], the EC50 in [1], in data set [2], in data set [3], in [7] and in data set [8] was over 10 µM each time. Moreover, the cytotoxic concentration (CC50) in [4] was over 99 µM. The compound also registered a CC50 at 24 h in data set [5] of over 99 µM. The compound also registered a CC50 at 72 h in data set [6] of over 99 µM.

With `Nc1nc(Cl)c2ccn([C@@H]3O[C@](F)(CO)[C@@H](O)[C@H]3O)c2n1` [Example 27, (2S,3S,4R,5R)-5-(2-amino-4-chloro-7H-pyrrolo[2,3-d]pyrimidin-7-yl)-2-fluoro-2-(hydroxymethyl)tetrahydrofuran-3,4-diol], the EC50 in data set [1], in data set [2], in [3], in data set [7] and in [8] was over 10 µM throughout. Also, the CC50 in data set [4] and in data set [9] was 10 to 99 µM each time. Besides, in data set [5], the CC50 at 24 h was in the range of 10 to 99 µM. The compound also registered a CC50 at 72 h in [6] of 10 to 99 µM.
